In patent US4870097A, “Pharmaceutical use of derivatives of tryptophan” (priority 1984, dated 1989):

Legend:
[1] = tested on: colon of rabbits stimulated with CCK-8; assay: Antispastic activity in the colon of rabbits stimulated with CCK-8; type: in vivo, rabbit; set-up: Antispastic activity, experiment 1 / Antispastic activity, experiment 2 / Antispastic activity, experiment 3: unit not given here; settings: CCK 100 ng/kg; for ED50: Oryctolagus cuniculus, iv, three experiments
Procedure: The abdomen of an anaesthetised rabbit is cut open to expose the transverse colon. A balloon full of water is inserted at the point established and connected to a pressure transducer by means of a polyethylene cannula filled with H2 O.
The optimum sensitivity in relation to the physiological contractions is fixed and the products are administered through the femoral veins. Contractions are induced by the administration of 100 ng/kg of CCK.

[2] = tested on: analgesic activity of morphine; assay: Tail Flick Test: increase in the analgesic effect of morphine; type: in vivo, rats; settings: for percentage variation in the latency of the pain sensation, 10' / percentage variation in the latency of the pain sensation, 20' / percentage variation in the latency of the pain sensation, 30' / percentage variation in the latency of the pain sensation, 45' / percentage variation in the latency of the pain sensation, 60' / percentage variation in the latency of the pain sensation, 90' / M(10'-90') average percentage variation: compound 10 mg/kg i.p. + morphine 2 mg/kg (row Morphine: alone); for percentage variation in the latency of the pain sensation, 10' / percentage variation in the latency of the pain sensation, 20' / percentage variation in the latency of the pain sensation, 30' / percentage variation in the latency of the pain sensation, 45' / percentage variation in the latency of the pain sensation, 60' / percentage variation in the latency of the pain sensation, 90': ± S.E.; for M(10'-90') average percentage variation: mean 10'-90'; for Potency ratio relative to morphine alone: rat, in vivo
In short: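 Male non-fasted rats, 150-200 g; heat source (75 °C) on tail, latency to tail movement timed, 8 s cut-off. Measured before and 10, 20, 30, 45, 60, 90 min after analgesic dosing; percentage variation per animal, averaged over groups of five.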

[3] = tested on: guinea pig gall bladder contracted with CCK-8; assay: Anti-CCK activity on guinea pig gall bladders in vitro; type: biochemical; settings: CCK-8 10 ng/ml, concentration antagonising 50% of contracting effect
In short: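 Longitudinal gall bladder strips in Krebs at 32° C, gassed with O2/CO2 95:5, were contracted with CCK-8 at 10 ng/ml and contractions recorded isometrically via force transducer. ED50 in mcg/ml is the compound concentration antagonising 50% of CCK contraction, derived by regression over at least three experiments.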

Compound	Antispastic activity, experiment 1 ([1]; 1 mg/kg iv)	Antispastic activity, experiment 2 ([1]; 1 mg/kg iv)	Antispastic activity, experiment 3 ([1]; 1 mg/kg iv)	Antispastic activity, experiment 1 ([1]; 3 mg/kg iv)	Antispastic activity, experiment 2 ([1]; 3 mg/kg iv)	Antispastic activity, experiment 3 ([1]; 3 mg/kg iv)	Antispastic activity, experiment 1 ([1]; 10 mg/kg iv)	Antispastic activity, experiment 2 ([1]; 10 mg/kg iv)	Antispastic activity, experiment 3 ([1]; 10 mg/kg iv)	ED50 [1] [mg/kg]	percentage variation in the latency of the pain sensation, 10' [2] [%]	percentage variation in the latency of the pain sensation, 20' [2] [%]	percentage variation in the latency of the pain sensation, 30' [2] [%]	percentage variation in the latency of the pain sensation, 45' [2] [%]	percentage variation in the latency of the pain sensation, 60' [2] [%]	percentage variation in the latency of the pain sensation, 90' [2] [%]	M(10'-90') average percentage variation [2] [%]	Potency ratio relative to morphine alone [2]	Anti CCK-8 activity, ED50 [3] [µg/mL]	Antispastic activity, experiment 3 ([1]; 0.3 mg/kg iv)
O=C(N[C@@H](Cc1c[nH]c2ccccc12)C(=O)O)OCc1ccc(Cl)cc1 [Compound 2]	-10.9	-16.8	-38.8	-31.4	-56.6	-41.5	-85.9	-74.4	-90.2	4.67	50.0 ± 14.9	25.0 ± 26.0	75.6 ± 17.6	23.7 ± 19.6	41.0 ± 20.3	43.6 ± 16.4	44.6	1.50	13.5	
CC(C)c1ccc(C(=O)N[C@@H](Cc2c[nH]c3ccccc23)C(=O)O)cc1 [Compound 20]	-30.8	-44.2	-34.7	-36.0	-60.3	-59.0	-82.5	-100.0		3.41	20.0 ± 12.8	33.1 ± 22.0	37.6 ± 18.9	37.5 ± 18.8	54.4 ± 19.3	33.2 ± 18.1	36.0	1.21	17.9	-12.8
